One test addresses T1, human H1 (Homo sapiens, UniProt P35367).
T1 construct: host or cells: CHO-K1, also expressing mitochondrion-targeted aequorin
Briefly: In vitro histamine H1 receptor cell-based aequorin bioluminescence antagonist assay. To be noted: CHO-K1 cells expressing human H1 and aequorin; histamine at EC80; read-out: H1 Antagonist EC50. In a few lines: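 CHO-K1 cells stably expressing human H1 or H4 plus mitochondrial aequorin (H4 also with Gα16), loaded with 5 μM coelenterazine-h for 4 h at ~21 °C. Compounds preincubated 15 min at room temperature, then histamine at EC80 added.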
T1 sequence (P35367 whole entry): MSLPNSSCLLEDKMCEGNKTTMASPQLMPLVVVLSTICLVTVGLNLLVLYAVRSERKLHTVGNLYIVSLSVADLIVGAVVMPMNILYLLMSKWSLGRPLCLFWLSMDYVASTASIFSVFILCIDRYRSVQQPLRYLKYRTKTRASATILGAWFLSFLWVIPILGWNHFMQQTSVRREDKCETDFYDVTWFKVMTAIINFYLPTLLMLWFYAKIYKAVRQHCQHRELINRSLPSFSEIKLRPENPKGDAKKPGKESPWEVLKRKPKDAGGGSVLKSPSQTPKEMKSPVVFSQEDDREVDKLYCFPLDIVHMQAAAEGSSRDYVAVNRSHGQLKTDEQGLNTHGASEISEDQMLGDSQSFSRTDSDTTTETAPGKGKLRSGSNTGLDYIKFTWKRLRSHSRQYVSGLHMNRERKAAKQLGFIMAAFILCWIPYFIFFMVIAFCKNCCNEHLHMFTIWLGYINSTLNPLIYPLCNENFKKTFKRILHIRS
For `Cc1csc2ncnc(NC(C)Cc3ccncc3)c12` (centres unmarked) [Example 120, 5-methyl-N-[1-(pyridin-4-yl)propan-2-yl]thieno[2,3-d]pyrimidin-4-amine], the EC50 – broadly, the midpoint of the concentration-response curve – was greater than 10 µM.
Still for that read-out and setting: as for `CCOC(=O)N1CCN(c2ncnc3scc(C)c23)CC1` [Example 230], the figure is greater than 10 µM; as for `Clc1ccc(CCNc2ncnc3[nH]ccc23)cc1` [Example 28, N-(4-chlorophenethyl)-7H-pyrrolo[2,3-d]pyrimidin-4-amine], greater than 10 µM.
Take `Cc1csc2ncnc(NCCO)c12` [Example 56, 2-({5-methylthieno[2,3-d]pyrimidin-4-yl}amino)ethan-1-ol]: the concentration for a half-maximal effect (EC50) is greater than 10 µM.
On the same count and under the same terms, as for `Cc1csc2ncnc(N(C)Cc3ccccc3)c12` [Example 209, N-benzyl-N,5-dimethylthieno[2,3-d]pyrimidin-4-amine], the figure is greater than 10 µM.
Still for that read-out and setting: as for `Cc1csc2ncnc(N3CCC(C)CC3)c12` [Example 191, 4-methyl-1-{5-methylthieno[2,3-d]pyrimidin-4-yl}piperidine], the figure is greater than 10 µM; as for `CCOC(=O)CNc1ncnc2scc(-c3ccccc3)c12` [Example 300, Ethyl 2-(5-phenylthieno[2,3-d]pyrimidin-4-ylamino)acetate], greater than 10 µM.
On the same count and under the same terms, as for `COc1cc(CNc2ncnc3scc(C)c23)cc(OC)c1` [Example 159, N-[(3,5-dimethoxyphenyl)methyl]-5-methylthieno[2,3-d]pyrimidin-4-amine], the figure is greater than 10 µM.
On to `CCCCN(C)c1ncnc2scc(C)c12` [Example 187, N-butyl-N,5-dimethylthieno[2,3-d]pyrimidin-4-amine], for which the EC50 was greater than 10 µM.
Same read-out and setting: the figure for `Cc1csc2ncnc(NCC(C)c3ccccc3)c12` (centres unmarked) [Example 119, 5-methyl-N-(2-phenylpropyl)thieno[2,3-d]pyrimidin-4-amine] is greater than 10 µM.
Still for that read-out and setting: the figure for `Cc1csc2ncnc(NCC(C)c3ccccc3)c12` (centres unmarked) [Example 116, 5-methyl-N-(2-phenylpropyl)thieno[2,3-d]pyrimidin-4-amine] is greater than 10 µM; for `CCC(CO)Nc1ncnc2scc(C)c12` (centres unmarked) [Example 72, 2-({5-methylthieno[2,3-d]pyrimidin-4-yl}amino)butan-1-ol] it is greater than 10 µM.
On the same count and under the same terms, as for `Cc1ccc(CNc2ncnc3scc(C)c23)cc1` [Example 100, 5-methyl-N-[(4-methylphenyl)methyl]thieno[2,3-d]pyrimidin-4-amine], the figure is greater than 10 µM; as for `Cc1csc2ncnc(N3CCc4ccccc4C3)c12` [Example 216, 2-{5-methylthieno[2,3-d]pyrimidin-4-yl}-1,2,3,4-tetrahydroisoquinoline], greater than 10 µM.
Take `CCOc1ccccc1CNc1ncnc2scc(C)c12` [Example 146, N-[(2-ethoxyphenyl)methyl]-5-methylthieno[2,3-d]pyrimidin-4-amine]: the EC50 is greater than 10 µM.
Still for that read-out and setting: the figure for `Cc1csc2ncnc(NCCc3cccc(Cl)c3)c12` [Example 149, N-[2-(3-chlorophenyl)ethyl]-5-methylthieno[2,3-d]pyrimidin-4-amine] is greater than 10 µM.
Same read-out and setting: as for `Cc1csc2ncnc(N3CCCCC3CO)c12` (centres unmarked) [Example 206, (1-{5-methylthieno[2,3-d]pyrimidin-4-yl}piperidin-2-yl)methanol], the figure is greater than 10 µM.
On the same count and under the same terms, as for `Cc1csc2ncnc(NCc3cccs3)c12` [Example 87, 5-methyl-N-(thiophen-2-ylmethyl)thieno[2,3-d]pyrimidin-4-amine], the figure is greater than 10 µM; as for `Cc1csc2ncnc(N[C@H](CO)Cc3ccccc3)c12` [Example 143, (2S)-2-({5-methylthieno[2,3-d]pyrimidin-4-yl}amino)-3-phenylpropan-1-ol], greater than 10 µM.
Regarding `Cc1csc2ncnc(NC3CCCC3)c12` [Example 65, N-cyclopentyl-5-methylthieno[2,3-d]pyrimidin-4-amine], the EC50 is greater than 10 µM.
On the same count and under the same terms, as for `Cc1csc2ncnc(NC3CCc4ccccc43)c12` (centres unmarked) [Example 111, N-(2,3-dihydro-1H-inden-1-yl)-5-methylthieno[2,3-d]pyrimidin-4-amine], the figure is greater than 10 µM; as for `Cc1csc2ncnc(NCc3ccccc3F)c12` [Example 104, N-[(2-fluorophenyl)methyl]-5-methylthieno[2,3-d]pyrimidin-4-amine], greater than 10 µM.
On to `CC(Nc1ncnc2sccc12)c1ccccc1` (centres unmarked) [Example 311, N-(1-phenylethyl)thieno[2,3-d]pyrimidin-4-amine], for which the EC50 was greater than 10 µM.
In the case of `Cc1ccc(CCNc2ncnc3scc(C)c23)cc1` [Example 19], the EC50 was greater than 10 µM.
As to `Cc1csc2ncnc(NCCCc3ccccc3)c12` [Example 117, 5-methyl-N-(3-phenylpropyl)thieno[2,3-d]pyrimidin-4-amine], the half-maximal effective concentration (EC50) was greater than 10 µM.
As to `Cc1csc2ncnc(NCCc3c[nH]c4ccccc34)c12` [Example 155, N-[2-(1H-indol-3-yl)ethyl]-5-methylthieno[2,3-d]pyrimidin-4-amine], the EC50 was greater than 10 µM.
The same measure, in the same setting: the figure for `Cc1csc2ncnc(NCC3CCCO3)c12` (centres unmarked) [Example 77, 5-methyl-N-(oxolan-2-ylmethyl)thieno[2,3-d]pyrimidin-4-amine] is greater than 10 µM; for `Cc1sc2ncnc(N3CCC(C(=O)OCc4ccc(C#N)cc4)CC3)c2c1C` [Example 306, 4-cyanobenzyl 1-(5,6-dimethylthieno[2,3-d]pyrimidin-4-yl)piperidine-4-carboxylate] it is greater than 10 µM.
The same measure, in the same setting: as for `Cc1csc2ncnc(NCc3ccco3)c12` [Example 75, N-(furan-2-ylmethyl)-5-methylthieno[2,3-d]pyrimidin-4-amine], the figure is greater than 10 µM; as for `Cc1csc2ncnc(NCCC(C)C)c12` [Example 69, 5-methyl-N-(3-methylbutyl)thieno[2,3-d]pyrimidin-4-amine], greater than 10 µM.
Turning to `CCOC(=O)N1CCC(Nc2ncnc3scc(C)c23)CC1` [Example 162, ethyl 4-({5-methylthieno[2,3-d]pyrimidin-4-yl}amino)piperidine-1-carboxylate], the EC50 is greater than 10 µM.

The target of another test is T2, human H4 (Homo sapiens, UniProt Q9H3N8).
T2 construct: host or cells: CHO-K1, also expressing mitochondrion-targeted aequorin and human Gα16
T2 sequence (Q9H3N8 whole entry): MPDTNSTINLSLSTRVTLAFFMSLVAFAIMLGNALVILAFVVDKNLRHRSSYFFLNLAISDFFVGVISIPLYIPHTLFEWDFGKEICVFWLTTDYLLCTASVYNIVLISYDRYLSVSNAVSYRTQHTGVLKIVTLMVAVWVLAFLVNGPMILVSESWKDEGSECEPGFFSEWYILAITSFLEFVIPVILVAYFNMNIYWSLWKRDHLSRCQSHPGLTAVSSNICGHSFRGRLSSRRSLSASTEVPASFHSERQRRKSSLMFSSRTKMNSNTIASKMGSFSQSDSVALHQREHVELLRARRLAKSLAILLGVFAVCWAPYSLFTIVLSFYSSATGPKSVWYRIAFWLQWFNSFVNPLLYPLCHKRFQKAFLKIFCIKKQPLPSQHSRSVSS
The experiment in a line: In vitro histamine H4 receptor cell-based aequorin bioluminescence antagonist assay. Particulars: CHO-K1 cells expressing human H4, aequorin and Gα16; histamine at EC80. The protocol: In vitro Histamine Receptor Cell-Based Assays
The cell-based assays utilize an aequorin dependent bioluminescence signal. Doubly-transfected, stable CHO—K1 cell lines expressing human H1 or H4, mitochondrion-targeted aequorin, and (H4 only) human G protein Gα16 are obtained from Perkin-Elmer. Cells are maintained in F12 (Ham's) growth medium, containing 10% (vol./vol.) fetal bovine serum, penicillin (100 IU/mL), streptomycin (0.1 mg/mL), zeocin (0.25 mg/mL) and geneticin (0.40 mg/mL). Cell media components are from Invitrogen, Inc. One day prior to assay, the growth medium is replaced with the same, excluding zeocin and geneticin.
For assay preparation, growth medium is aspirated, and cells are rinsed with calcium-free, magnesium-free phosphate-buffered saline, followed by two to three minute incubation in Versene (Invitrogen, Inc.) at 37° C. Assay medium (DMEM:F12 [50:50], phenol-red free, containing 1 mg/mL protease-free bovine serum albumin) is added to collect the released cells, which are then centrifuged. The cell pellet is re-suspended in assay medium, centrifuged once more, and re-suspended in assay medium to a final density of 5×10^6 cells/mL. Coelenterazine-h dye (500 μM in ethanol) is added to a final concentration of 5 μM, and mixed immediately. The conical tube containing the cells is then wrapped with foil to protect the light-sensitive dye. The cells are incubated for four hours further at room temperature (approximately 21° C.) with end-over-end rotation to keep them in suspension.
Just before assay, the dye-loaded cells are diluted to 0.75×10^6 cells/mL (H1 receptor) or 1.5×10^6 cells/mL (H4 receptor) with additional assay medium. Cells are dispensed to 1536 well micro-titer plates at 3 μL/well. To assay receptor antagonism, 60 nl of 100× concentration test compounds in 100% dimethyl sulfoxide (DMSO) are dispensed to the wells, one compound per well, by passive pin transfer, and the plates are incubated for 15 minutes at room temperature. […] The pipette dispenses 3 μL/well of agonist (histamine, at twice the final concentration, where final concentration is a previously determined EC80) in assay medium, with concurrent bioluminescence detection. Agonist activity of test compounds is excluded by separate assays that measure response to test compounds immediately, without added histamine agonist.
CCD image capture on the Lumilux includes a 5 second baseline read prior to agonist addition, and generally a 40 second read per plate after agonist addition. A decrease in bioluminescence signal (measured either as area-under-the-curve, or maximum signal amplitude minus minimum signal amplitude) correlates with receptor antagonism in a dose dependent manner. The negative control is DMSO lacking any test compound. For antagonist assays, the positive controls are diphenhydramine (2-Diphenylmethoxy-N,N-dimethylethylamine, 10 μM final concentration, H1 receptor) or JNJ7777120 (1-[(5-Chloro-1H-indol-2-yl)carbonyl]-4-methyl-piperazine, 10 μM final concentration, H4 receptor). Efficacy is measured as a percentage of positive control activity.
Consider `Cc1csc2ncnc(NC(C)Cc3ccncc3)c12` (centres unmarked) [Example 120, 5-methyl-N-[1-(pyridin-4-yl)propan-2-yl]thieno[2,3-d]pyrimidin-4-amine], for which the concentration for a half-maximal effect (EC50) was greater than 10 µM.
Still for that read-out and setting: as for `CCOC(=O)N1CCN(c2ncnc3scc(C)c23)CC1` [Example 230], the figure is greater than 10 µM; as for `Clc1ccc(CCNc2ncnc3[nH]ccc23)cc1` [Example 28, N-(4-chlorophenethyl)-7H-pyrrolo[2,3-d]pyrimidin-4-amine], greater than 10 µM.
On the same count and under the same terms, the figure for `Cc1csc2ncnc(NCCO)c12` [Example 56, 2-({5-methylthieno[2,3-d]pyrimidin-4-yl}amino)ethan-1-ol] is greater than 10 µM; for `Cc1csc2ncnc(N(C)Cc3ccccc3)c12` [Example 209, N-benzyl-N,5-dimethylthieno[2,3-d]pyrimidin-4-amine] it is greater than 10 µM; for `Cc1csc2ncnc(N3CCC(C)CC3)c12` [Example 191, 4-methyl-1-{5-methylthieno[2,3-d]pyrimidin-4-yl}piperidine] it is greater than 10 µM.
As to `Cc1csc2ncnc(N3CCC(N(C)C)C3)c12` (centres unmarked) [Example 202, N,N-dimethyl-1-{5-methylthieno[2,3-d]pyrimidin-4-yl}pyrrolidin-3-amine], the half-maximal effective concentration (EC50) is greater than 10 µM.
Still for that read-out and setting: the figure for `CN1CCC(N(C)c2ncnc3scc(-c4ccc(Br)cc4)c23)CC1` [Example 13, 5-(4-bromophenyl)-N-methyl-N-(1-methylpiperidin-4-yl)thieno[2,3-d]pyrimidin-4-amine] is greater than 10 µM.
In the case of `c1ccc(CN2CCN(c3ncnc4sc5c(c34)CCCC5)CC2)cc1` [Example 12, 4-(4-benzylpiperazin-1-yl)-5,6-tetrahydrobenzo[b]thiophenethieno[2,3-d]pyrimidine], the 50% effective concentration (EC50) was greater than 10 µM.
`Cc1csc2ncnc(N3CCN(c4ccc(C#N)cn4)CC3)c12` [Example 253, 6-(4-{5-methylthieno[2,3-d]pyrimidin-4-yl}piperazin-1-yl)pyridine-3-carbonitrile] returned a concentration giving a half-maximal response (EC50) greater than 10 µM.
As for `Cc1ccc(C)c(N2CCN(c3ncnc4scc(C)c34)CC2)c1` [Example 259, 1-(2,5-dimethylphenyl)-4-{5-methylthieno[2,3-d]pyrimidin-4-yl}piperazine], the EC50 is greater than 10 µM.
The same measure, in the same setting: as for `Cc1csc2ncnc(N(C)CCc3ccccn3)c12` [Example 220, N,5-dimethyl-N-[2-(pyridin-2-yl)ethyl]thieno[2,3-d]pyrimidin-4-amine], the figure is greater than 10 µM; as for `Cc1csc2ncnc(N3CCN(c4ccc(Cl)cc4)CC3)c12` [Example 266, 1-(4-chlorophenyl)-4-{5-methylthieno[2,3-d]pyrimidin-4-yl}piperazine], greater than 10 µM.

The values are drawn from patent publication US20100063047A1 (KALYPSYS, INC., priority 2008, published 2010).
